Counter-ions that a name gives are not always drawn. Like-named read-outs stand apart in the source and are kept apart here.
How the values were obtained:
[1] = target: T1, SARS-CoV-2 PLpro (nsp3 1564–1878) (Severe acute respiratory syndrome coronavirus 2, UniProt P0DTD1); test: biochemical; set-up: FRET-quenched peptide (Pro3) cleavage by PLpro, 10 min pre-incubation, slope over 20 min, normalised to no-compound control; details: low concentration screen, read-out: % of control remaining
[2] = target: T1, SARS-CoV-2 PLpro (nsp3 1564–1878); test: biochemical; set-up: FRET-quenched peptide (Pro3) cleavage by PLpro, 10 min pre-incubation, slope over 20 min, normalised to no-compound control; details: high concentration screen, read-out: % of control remaining

OCc1cc(C(O)CNCCCCCCOCCCCc2ccccc2)ccc1O (stereo not shown) [Salmeterol]
remaining activity at 1.25 µM ([1]; Well no.=1414): 98.7% | remaining activity at 3.75 µM ([2]; Well no.=1414): 99.5%

Brc1ccc([C@H]2CN3CCSC3=N2)cc1 [S(-)-p-Bromotetramisole oxalate]
remaining activity at 1.25 µM ([1]; Well no.=99): 104% | remaining activity at 3.75 µM ([2]; Well no.=99): 102%

NNC(=O)c1ccncc1 [Isoniazid]
remaining activity at 1.25 µM ([1]; Well no.=1744): 101% | remaining activity at 3.75 µM ([2]; Well no.=1744): 103%

NC(=O)CCCSc1nc(N)nc(-c2c(Cl)cc3c4c(cccc24)COC3)n1 [CH5138303]
remaining activity at 1.25 µM ([1]; Well no.=8668): 95% | remaining activity at 3.75 µM ([2]; Well no.=8668): 90.8%

CC(O)Cn1cnc2c1c(=O)n(C)c(=O)n2C (stereo not shown) [Proxyphylline]
remaining activity at 1.25 µM ([1]; Well no.=6220): 94.5% | remaining activity at 1.25 µM ([1]; Well no.=8073): 105% | remaining activity at 3.75 µM ([2]; Well no.=6220): 94% | remaining activity at 3.75 µM ([2]; Well no.=8073): 108%

O=c1c(-c2ccc(O)cc2)coc2cc(O[C@@H]3O[C@H](CO)[C@@H](O)[C@H](O)[C@H]3O)ccc12 [Daidzin]
remaining activity at 1.25 µM ([1]; Well no.=3249): 103% | remaining activity at 3.75 µM ([2]; Well no.=3249): 102%

O=C1/C(=C/c2ccc(O)c(Br)c2)CN(Cc2ccccc2)C/C1=C\c1ccc(O)c(Br)c1 [CARM1-IN-1]
remaining activity at 1.25 µM ([1]; Well no.=8030): 94.4% | remaining activity at 3.75 µM ([2]; Well no.=8030): 88%

CC(C)[C@@H](C)/C=C/[C@@H](C)[C@H]1CC[C@H]2C3=CC=C4C[C@@H](O)CC[C@]4(C)[C@H]3CC[C@]12C [Ergosterol]
remaining activity at 1.25 µM ([1]; Well no.=5194): 102% | remaining activity at 3.75 µM ([2]; Well no.=5194): 101%

CNC(=O)c1ccc(-c2cnc3ncc(Cc4ccc5ncccc5c4)n3n2)cc1F [INCB28060]
remaining activity at 1.25 µM ([1]; Well no.=5119): 102% | remaining activity at 3.75 µM ([2]; Well no.=5119): 103%

CN(C)C(N)=NCCC[C@H](N)C(=O)O [Asymmetric dimethylarginine]
remaining activity at 1.25 µM ([1]; Well no.=7119): 103% | remaining activity at 3.75 µM ([2]; Well no.=7119): 102%

Clc1ccc2nsnc2c1NC1=NCCN1 [Tizanidine HCl]
remaining activity at 1.25 µM ([1]; Well no.=4851): 101% | remaining activity at 3.75 µM ([2]; Well no.=4851): 99.7%

O=C(CCNNC(=O)c1ccncc1)NCc1ccccc1 [Nialamide]
remaining activity at 1.25 µM ([1]; Well no.=1091): 95.4% | remaining activity at 1.25 µM ([1]; Well no.=1837): 97.6% | remaining activity at 3.75 µM ([2]; Well no.=1091): 93.8% | remaining activity at 3.75 µM ([2]; Well no.=1837): 97.3%

O=C(OCCN1CCOCC1)C1(c2ccccc2)CCCCC1 [PRE-084]
remaining activity at 1.25 µM ([1]; Well no.=1000): 98.1% | remaining activity at 3.75 µM ([2]; Well no.=1000): 100%

CC(=O)OC[C@@]1(O)CC23CC[C@@H]4c5ccoc5C=C[C@@]4(C)[C@@H]2CC[C@@H]1C3 [Kahweol Acetate]
remaining activity at 1.25 µM ([1]; Well no.=3489): 102% | remaining activity at 3.75 µM ([2]; Well no.=3489): 103%

Cc1ccc(C(=O)N(CCCN)[C@@H](c2oc3cc(Cl)ccc3c(=O)c2Cc2ccccc2)C(C)C)cc1 [SB 743921]
remaining activity at 1.25 µM ([1]; Well no.=4812): 97.2% | remaining activity at 3.75 µM ([2]; Well no.=4812): 100%

CCOC(=O)C1=C(C)NC(C)=C(C(=O)OC)C1c1cccc(Cl)c1Cl (stereo not shown) [Felodipine]
remaining activity at 1.25 µM ([1]; Well no.=521): 106% | remaining activity at 1.25 µM ([1]; Well no.=1757): 99.7% | remaining activity at 3.75 µM ([2]; Well no.=1757): 102%

O=C1Nc2ccc(Cl)cc2[C@@](C#CC2CC2)(C(F)(F)F)O1 [Efavirenz]
remaining activity at 1.25 µM ([1]; Well no.=2248): 97.1% | remaining activity at 3.75 µM ([2]; Well no.=2248): 101%

COC(=O)N[C@H](C(=O)N[C@@H](Cc1ccccc1)[C@@H](O)CN(Cc1ccc(-c2ccccn2)cc1)NC(=O)[C@@H](NC(=O)OC)C(C)(C)C)C(C)(C)C [Atazanavir sulfate]
remaining activity at 1.25 µM ([1]; Well no.=5245): 96.5% | remaining activity at 3.75 µM ([2]; Well no.=5245): 101%

CC(=O)OC(C)C[N+](C)(C)C (stereo not drawn) [Acetyl-beta-methylcholine chloride]
remaining activity at 1.25 µM ([1]; Well no.=107): 98.7% | remaining activity at 3.75 µM ([2]; Well no.=107): 98.4%

O=C(O)c1ccc[nH]1 [Pyrrole-2-carboxylic acid]
remaining activity at 1.25 µM ([1]; Well no.=6405): 93.2% | remaining activity at 3.75 µM ([2]; Well no.=6405): 92.4%

CN(C)CCCO[C@@H]1[C@H]2OC(C)(C)O[C@H]2O[C@@H]1[C@H](O)CO [Amiprilose hydrochloride]
remaining activity at 1.25 µM ([1]; Well no.=207): 101% | remaining activity at 3.75 µM ([2]; Well no.=207): 103%

CCCCCCCCCCCCC/C=C/[C@@H](O)[C@@H](N)CO [Sphingosine]
remaining activity at 1.25 µM ([1]; Well no.=4361): 101% | remaining activity at 3.75 µM ([2]; Well no.=1172): 104% | remaining activity at 3.75 µM ([2]; Well no.=4361): 93.6%

CCC(=O)O[C@]1(C(=O)SCF)[C@H](C)C[C@H]2[C@@H]3C[C@H](F)C4=CC(=O)C=C[C@]4(C)[C@@]3(F)[C@@H](O)C[C@@]21C [Fluticasone (propionate)]
remaining activity at 1.25 µM ([1]; Well no.=7515): 98.2% | remaining activity at 3.75 µM ([2]; Well no.=7515): 97.6%

C[C@@H]1CN(Cc2ccc(F)cc2)[C@@H](C)CN1C(=O)c1cc2c(C(=O)C(=O)N(C)C)cn(C)c2cc1Cl [Talmapimod]
remaining activity at 1.25 µM ([1]; Well no.=7304): 99.8% | remaining activity at 3.75 µM ([2]; Well no.=7304): 91.9%

CO[C@@H]1[C@H](O)C[C@@H](O[C@@H]2C[C@H](Oc3cc4cc5c(c(O)c4c(O)c3C)C(=O)[C@@H](O[C@H]3C[C@@H](O[C@H]4C[C@@H](O[C@H]6C[C@](C)(O)[C@@H](OC(C)=O)[C@H](C)O6)[C@H](O)[C@@H](C)O4)[C@H](O)[C@@H](C)O3)[C@H]([C@H](OC)C(=O)[C@@H](O)[C@@H](C)O)C5)O[C@H](C)[C@@H]2OC(C)=O)O[C@@H]1C [Chromomycin A3]
remaining activity at 1.25 µM ([1]; Well no.=3579): 103% | remaining activity at 3.75 µM ([2]; Well no.=3579): 107%

c1ccc(CC2=NCCN2)cc1 [Tolazoline (hydrochloride)]
remaining activity at 1.25 µM ([1]; Well no.=6231): 104% | remaining activity at 3.75 µM ([2]; Well no.=6231): 107%

CC(C)=CCC[C@](C)(O)[C@H]1CC[C@]2(C)[C@@H]1[C@H](O)C[C@@H]1[C@@]3(C)CC[C@H](O)C(C)(C)[C@@H]3[C@@H](O[C@@H]3O[C@H](CO)[C@@H](O)[C@H](O)[C@H]3O)C[C@]12C [Ginsenoside Rh1]
remaining activity at 1.25 µM ([1]; Well no.=6546): 98.2% | remaining activity at 3.75 µM ([2]; Well no.=6546): 93.7%

Clc1ccc(C(Cn2ccnc2)OCc2csc3c(Cl)cccc23)c(Cl)c1 (stereo not shown) [Sertaconazole]
remaining activity at 1.25 µM ([1]; Well no.=1840): 101% | remaining activity at 3.75 µM ([2]; Well no.=1840): 98.3%

C[C@H](O)CC(=O)O [(S)-3-Hydroxybutanoic acid]
remaining activity at 1.25 µM ([1]; Well no.=7301): 109% | remaining activity at 3.75 µM ([2]; Well no.=7301): 105%

C[C@H]1[C@H]2CC[C@H]3[C@@H]4CC=C5C[C@@H](N(C)C)CC[C@]5(C)[C@H]4CC[C@]23CN1C [Conessine]
remaining activity at 1.25 µM ([1]; Well no.=3100): 94% | remaining activity at 3.75 µM ([2]; Well no.=3100): 93.7%

C#C[C@]1(OC(C)=O)CC[C@H]2[C@@H]3CCC4=CC(=O)CC[C@@H]4[C@H]3CC[C@@]21C [Norethindrone acetate]
remaining activity at 1.25 µM ([1]; Well no.=5895): 99.8% | remaining activity at 3.75 µM ([2]; Well no.=5895): 101%

CNCCC(Oc1ccc(C(F)(F)F)cc1)c1ccccc1 (stereo not shown) [Fluoxetine hydrochloride]
remaining activity at 1.25 µM ([1]; Well no.=761): 95.3% | remaining activity at 3.75 µM ([2]; Well no.=761): 93.4%
